Publication PMC10425210 (The Journal of Clinical Investigation, 2023)
Where two headings read alike, the source gives them in different places.

System: SHIV-SF162P3
Assay type: in vivo, rhesus macaques

CC(C)(C#Cc1ccc(-c2ccc(Cl)c3c(NS(C)(=O)=O)nn(CC(F)(F)F)c23)c([C@H](Cc2cc(F)cc(F)c2)NC(=O)Cn2nc(C(F)(F)F)c3c2C(F)(F)[C@@H]2C[C@H]32)n1)S(C)(=O)=O [LEN, Lenacapavir]
7809 copies per mL: Plasma SHIV RNA (animal BM55, 20 mg/kg, week 6 post challenge)
6: Animal number, Uninfected (LEN-dosed >target (70 nM))
145.35 / 10M PBMC: Intact SHIV DNA / 10M PBMC (animal BM55, 20 mg/kg, Wk 2 post challenge)
2 week after challenge: first detectable intact SHIV DNA (3 animals with confirmed viremia)
1 / 10M PBMC: Intact SHIV DNA / 10M PBMC (animal BN33, 20 mg/kg, Wk 2 post challenge) | Intact SHIV DNA / 10M PBMC (animal BN33, 20 mg/kg, Wk 10 post challenge) | Intact SHIV DNA / 10M PBMC (animal CP67, 75 mg/kg, Wk 2 post challenge) | Intact SHIV DNA / 10M PBMC (animal CP67, 75 mg/kg, Wk 10 post challenge) | Intact SHIV DNA / 10M PBMC (animal V411, 50 mg/kg, Wk 2 post challenge) | Intact SHIV DNA / 10M PBMC (animal V411, 50 mg/kg, Wk 10 post challenge) | Intact SHIV DNA / 10M PBMC (animal V417, 75 mg/kg, Wk 2 post challenge) | Intact SHIV DNA / 10M PBMC (animal V417, 75 mg/kg, Wk 10 post challenge) | Intact SHIV DNA / 10M PBMC (animal V426, 75 mg/kg, Wk 2 post challenge) | Intact SHIV DNA / 10M PBMC (animal V426, 75 mg/kg, Wk 10 post challenge)
398.25 / 10M PBMC: Intact SHIV DNA / 10M PBMC (animal V229, 20 mg/kg, Wk 2 post challenge)
Not infected: Challenge outcome (animal BN33, 20 mg/kg) | Challenge outcome (animal CP67, 75 mg/kg) | Challenge outcome (animal V411, 50 mg/kg) | Challenge outcome (animal V417, 75 mg/kg) | Challenge outcome (animal V426, 75 mg/kg) | Challenge outcome (animal V430, 50 mg/kg)
69 copies per mL: Plasma SHIV RNA (animal BM55, 20 mg/kg, week 8 post challenge) | Plasma SHIV RNA (animal V229, 20 mg/kg, week 8 post challenge)
2: Animal number, Uninfected (LEN-dosed <target (70 nM))
Infected: Challenge outcome (animal BM55, 20 mg/kg) | Challenge outcome (animal V229, 20 mg/kg)
79 copies per mL: Plasma SHIV RNA (animal V229, 20 mg/kg, week 7 post challenge)
8: Animal number, Uninfected (LEN-dosed total)
4541 copies per mL: Plasma SHIV RNA (animal BM55, 20 mg/kg, week 7 post challenge)
189 copies per mL: Plasma SHIV RNA (animal V229, 20 mg/kg, week 6 post challenge)
62 copies per mL: Plasma SHIV RNA (animal BM55, 20 mg/kg, week 9 post challenge) | Plasma SHIV RNA (animal BM55, 20 mg/kg, week 10 post challenge) | Plasma SHIV RNA (animal BN33, 20 mg/kg, week 6 post challenge) | Plasma SHIV RNA (animal BN33, 20 mg/kg, week 7 post challenge) | Plasma SHIV RNA (animal BN33, 20 mg/kg, week 8 post challenge) | Plasma SHIV RNA (animal BN33, 20 mg/kg, week 9 post challenge) | Plasma SHIV RNA (animal BN33, 20 mg/kg, week 10 post challenge) | Plasma SHIV RNA (animal CP67, 75 mg/kg, week 0 post challenge) | Plasma SHIV RNA (animal CP67, 75 mg/kg, week 1 post challenge) | Plasma SHIV RNA (animal CP67, 75 mg/kg, week 2 post challenge) | Plasma SHIV RNA (animal V229, 20 mg/kg, week 9 post challenge) | Plasma SHIV RNA (animal V229, 20 mg/kg, week 10 post challenge) | Plasma SHIV RNA (animal V411, 50 mg/kg, week 0 post challenge) | Plasma SHIV RNA (animal V411, 50 mg/kg, week 1 post challenge) | Plasma SHIV RNA (animal V411, 50 mg/kg, week 2 post challenge) | Plasma SHIV RNA (animal V411, 50 mg/kg, week 3 post challenge) | Plasma SHIV RNA (animal V411, 50 mg/kg, week 4 post challenge) | Plasma SHIV RNA (animal V411, 50 mg/kg, week 5 post challenge) | Plasma SHIV RNA (animal V411, 50 mg/kg, week 6 post challenge) | Plasma SHIV RNA (animal V411, 50 mg/kg, week 7 post challenge) | Plasma SHIV RNA (animal V411, 50 mg/kg, week 8 post challenge) | Plasma SHIV RNA (animal V411, 50 mg/kg, week 9 post challenge) | Plasma SHIV RNA (animal V411, 50 mg/kg, week 10 post challenge) | Plasma SHIV RNA (animal V411, 50 mg/kg, week 11 post challenge) | Plasma SHIV RNA (animal V411, 50 mg/kg, week 12 post challenge) | Plasma SHIV RNA (animal V411, 50 mg/kg, week 13 post challenge) | Plasma SHIV RNA (animal V411, 50 mg/kg, week 14 post challenge) | Plasma SHIV RNA (animal V411, 50 mg/kg, week 15 post challenge) | Plasma SHIV RNA (animal V411, 50 mg/kg, week 16 post challenge) | Plasma SHIV RNA (animal V411, 50 mg/kg, week 17 post challenge) | Plasma SHIV RNA (animal V411, 50 mg/kg, week 18 post challenge) | Plasma SHIV RNA (animal V417, 75 mg/kg, week 0 post challenge) | Plasma SHIV RNA (animal V417, 75 mg/kg, week 1 post challenge) | Plasma SHIV RNA (animal V417, 75 mg/kg, week 2 post challenge) | Plasma SHIV RNA (animal V426, 75 mg/kg, week 0 post challenge) | Plasma SHIV RNA (animal V426, 75 mg/kg, week 1 post challenge) | Plasma SHIV RNA (animal V426, 75 mg/kg, week 2 post challenge) | Plasma SHIV RNA (animal V426, 75 mg/kg, week 3 post challenge)
0 of 6: animals becoming infected (LEN exposure above the 70 nM target at challenge)
≤ 4 week after challenge: time of measurable anti-capsid (p27) antibodies (3 animals positive for SHIV by qPCR)
0: Animal number, Infected (LEN-dosed >target (70 nM))
3: Animal number, Infected (LEN-dosed <target (70 nM)) | Animal number, Infected (LEN-dosed total)
